In paper PMC12910498 (ACS pharmacology & translational science, 2026):
Read-outs that look alike come from different tables or passages of the source.

Legend:
[1] = Phase I metabolic stability in human liver microsomes (with NADPH); assay type: in vitro ADME; details: pH 7.4, presence of NADPH, mean ± SD, n = 3
Protocol: (§1) We evaluated the Phase I metabolic stability of compounds 2−7 and 14−19 using rat and human liver microsomes, as previously described.[45]
(§2) Phase I metabolic stability assays were conducted using rat and human liver microsomes as previously described[45],[70] with minor modifications. In brief, the reactions were carried out with 100 mM potassium phosphate buffer, pH 7.4, in the presence of NADPH regenerating system (1.3 mM NADPH, 3.3 mM glucose 6-phosphate, 3.3 mM MgCl2, 0.4 U/mL glucose-6-phosphate dehydrogenase, 50 μM sodium citrate). Negative controls without cofactors were assessed to determine the non-CYP-mediated metabolism. Compound disappearance was monitored over time using a liquid chromatography and tandem mass spectrometry (LC/MS) method. All reactions were performed in triplicate.
(§3) Chromatographic analysis was performed on a Dionex ultra high-performance LC system coupled with Q Exactive Focus orbitrap mass spectrometer (Thermo Fisher Scientific Inc., Waltham MA). Separation was achieved using Agilent Eclipse Plus column (100 × 2.1 mm^2 i.d.; maintained at 35 °C) packed with a 1.8 μm C18 stationary phase. […] The total run time for each analyte was 6.5 min. Pumps were operated at a flow rate of 0.3 mL/min. The mass spectrometer controlled by Xcalibur software 4.0.27.13 (Thermo Scientific) was operated with a HESI ion source in positive ionization mode. Compounds were identified in the full-scan mode (from m/z 50 to 750) by comparing t = 0 samples with t = 30 min and t = 60 min samples.

[2] = Phase I metabolic stability in rat liver microsomes (with NADPH); assay type: in vitro ADME; details: pH 7.4, presence of NADPH, mean ± SD, n = 3
Protocol: as §1, §2, §3

[3] = molecular target: T1, human D4R (Homo sapiens, UniProt P21917); details: for D4R Ant. (%): cAMP, antagonist mode, 10 μM forskolin and 10 nM dopamine, normalized to spiperone; for Emax: read-out: D4R Emax (%)
T1 sequence (P21917 1-419): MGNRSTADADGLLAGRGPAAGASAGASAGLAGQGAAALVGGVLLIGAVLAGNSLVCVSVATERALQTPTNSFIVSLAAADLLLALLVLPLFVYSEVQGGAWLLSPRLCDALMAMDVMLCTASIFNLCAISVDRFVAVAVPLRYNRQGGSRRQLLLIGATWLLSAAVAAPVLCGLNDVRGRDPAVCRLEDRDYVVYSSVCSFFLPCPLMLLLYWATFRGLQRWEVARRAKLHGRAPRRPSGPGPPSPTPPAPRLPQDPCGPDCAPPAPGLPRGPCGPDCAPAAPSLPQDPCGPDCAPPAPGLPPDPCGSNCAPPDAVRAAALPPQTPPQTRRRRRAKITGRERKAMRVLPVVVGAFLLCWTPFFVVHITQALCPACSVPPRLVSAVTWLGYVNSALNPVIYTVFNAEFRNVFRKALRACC

[4] = molecular target: T2, D5 (Homo sapiens, UniProt P21918); test: PDSP primary screen, D5; assay type: binding; details: 10 µM compound
T2 construct: Psychoactive Drug Screening Program (PDSP)
From the text: (§4) Receptor Primary Secondary Primary Secondary Primary Secondary Primary Secondary screen assay screen assay screen assay screen assay […]
(§5) inhibition in primary assessment.

[5] = molecular target: T3, D1 (Homo sapiens, UniProt P21728); test: PDSP primary screen and secondary assay, D1; assay type: binding; details: 10 µM compound
T3 construct: Psychoactive Drug Screening Program (PDSP)
From the text: as §4, §5

[6] = molecular target: T1, human D4R; test: DiscoverX PathHunter β-arrestin recruitment assay, D4R; details: for D4R average activity at the highest tested dose: at 100 μM (Emax ND); for D4R Ant. (%): antagonist mode, EC80 dopamine (1 μM), normalized to spiperone
[7] = molecular target: human D3R (Homo sapiens, UniProt P35462); test: DiscoverX PathHunter β-arrestin recruitment assay, D3R; details: for D3R Ant. (%): antagonist mode, EC80 dopamine (1 μM), normalized to spiperone; for Emax: read-out: D3R Emax (%)
[8] = Pharmacokinetics study in rats (plasma and brain); assay type: in vivo, Sprague−Dawley rats; details: rat, 5 mg/kg IP; for Kp / half-life / Tmax / AUC / Cmax: Sprague-Dawley; for Kp: brain and plasma, AUC brain/plasma, read-out: brain: Plasma ratio; for Kp / half-life: ip; for peak in vivo brain concentrations expected: from brain Cmax
Protocol: Given their adequate in vitro stability profiles, we next evaluated the in vivo pharmacokinetic profiles of 14, 15, 17, and 18 in rats. Sprague−Dawley rats were dosed with 5 mg/kg (14, 15, 17) or 10 mg/kg (18), i.p., and plasma and brain levels of each drug were measured 0−6 h postdose.
All animal experiments were performed following the protocols evaluated and approved by the Animal Care and Use Committee at Johns Hopkins University (Ethics Approval Number: RA24M403). Pharmacokinetic studies in Sprague−Dawley (SD) rats were conducted according to protocols approved. SD rats obtained from Harlan were maintained on a 12 h light−dark cycle with ad libitum access to food and water. Test compound was administered via i.p. injection at a dose of 10 mg/kg (100% saline vehicle, 10 mL/kg volume). The rats were sacrificed at specified time points (0.25, 0.5 h, 1, 2, 4, and 6 h) post drug administration. For the collection of plasma and brain tissue, animals were euthanized with CO2, and blood samples were collected in heparinized microtubes by cardiac puncture. Brains were dissected and immediately flash-frozen (−80 °C). Blood samples were spun at 2000g for 15 min, and plasma was removed and stored at −80 °C until analysis (as described below).
Quantitation of triazole analogs 14, 15, 17, and 18 was performed using liquid chromatography with tandem mass spectrometry (LC/MS-MS) methods. Briefly, calibration standards were prepared using respective tissue (naïve plasma and brain) with additions of the test compounds. For quantifying the test compounds in the pharmacokinetic samples, plasma samples (20 μL) were processed using a single liquid extraction method by addition of 100 μL of acetonitrile containing internal standard (losartan: 0.5 μM), followed by vortex-mixing for 30 s and then centrifugation at 10,000g for 10 min at 4 °C. Brain tissues were diluted 1:5 w/v with acetonitrile containing losartan (0.5 μm) and homogenized, followed by vortex-mixing and centrifugation at 10,000g for 10 min at 4 °C. A 50 μL aliquot of the supernatant was diluted with 50 μL of water and transferred to 250 μL polypropylene autosampler vials sealed with Teflon caps. Two μL of the sample was injected into the LC/MS/MS system for analysis. Chromatographic analysis was performed using an Accela ultra high-performance system consisting of an analytical pump and an autosampler coupled with a TSQ Vantage mass spectrometer. […] The mobile phase consisted of 0.1% formic acid in acetonitrile and 0.1% formic acid in water with gradient elution, starting with 10% organic phase (from 0 to 1 min) linearly increasing to 95% (from 1 to 2 min), and re-equilibrating to 10% by 3 min. The total run time for each analyte was 3.5 min. Pumps were operated at a flow rate of 0.4 mL/min. […] Plasma concentrations (nmol/mL) as well as brain tissue concentrations (nmol/g) were determined and plots of mean plasma concentration versus time were constructed. Noncompartmental analysis modules in Phoenix WinNonlin version 7.0 (Certara USA, Inc., Princeton, NJ) were used to quantify exposures (AUC0−t) and half-life (t1/2).

[9] = molecular target: human D2R long isoform (Homo sapiens, UniProt P14416); test: DiscoverX PathHunter β-arrestin recruitment assay, D2R; details: for Emax: read-out: D2R Emax (%)
[10] = brain, 5 mg/kg, brain, read-out: half-life (h) brain (converted)
[11] = plasma and brain, 5 mg/kg, tissue not specified, read-out: half-life (converted)
[12] = plasma, 5 mg/kg, plasma, read-out: half-life (h) plasma (converted)
[13] = brain, read-out: Tmax (h) brain
[14] = plasma, read-out: Tmax (h) plasma
[15] = antagonist mode, EC80 dopamine (1 μM), normalized to spiperone

Sequence of human D2R long isoform (P14416 whole entry, canonical isoform): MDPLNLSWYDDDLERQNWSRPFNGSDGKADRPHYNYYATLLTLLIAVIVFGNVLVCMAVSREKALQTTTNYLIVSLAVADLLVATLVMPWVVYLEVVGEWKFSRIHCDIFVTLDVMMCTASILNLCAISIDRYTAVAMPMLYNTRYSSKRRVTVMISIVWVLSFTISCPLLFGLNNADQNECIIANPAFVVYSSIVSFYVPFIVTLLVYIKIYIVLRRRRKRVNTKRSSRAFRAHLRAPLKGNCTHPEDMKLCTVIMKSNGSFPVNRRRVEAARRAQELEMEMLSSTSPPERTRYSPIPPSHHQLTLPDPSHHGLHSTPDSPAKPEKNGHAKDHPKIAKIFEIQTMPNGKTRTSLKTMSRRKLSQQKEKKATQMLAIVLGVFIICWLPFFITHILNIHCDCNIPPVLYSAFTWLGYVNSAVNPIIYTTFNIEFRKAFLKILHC
Sequence of human D3R (P35462 whole entry): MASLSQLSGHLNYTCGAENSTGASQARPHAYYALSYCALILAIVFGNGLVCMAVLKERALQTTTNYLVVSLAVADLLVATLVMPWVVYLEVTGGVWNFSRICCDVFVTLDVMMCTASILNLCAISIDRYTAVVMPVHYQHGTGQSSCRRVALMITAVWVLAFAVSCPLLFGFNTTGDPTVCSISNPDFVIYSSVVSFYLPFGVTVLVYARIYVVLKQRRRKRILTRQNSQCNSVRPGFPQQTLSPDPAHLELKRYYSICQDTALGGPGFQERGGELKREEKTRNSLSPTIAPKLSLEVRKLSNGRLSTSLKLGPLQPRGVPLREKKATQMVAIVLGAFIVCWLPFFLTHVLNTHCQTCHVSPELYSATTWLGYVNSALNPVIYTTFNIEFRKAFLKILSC
T3 sequence (P21728 whole entry): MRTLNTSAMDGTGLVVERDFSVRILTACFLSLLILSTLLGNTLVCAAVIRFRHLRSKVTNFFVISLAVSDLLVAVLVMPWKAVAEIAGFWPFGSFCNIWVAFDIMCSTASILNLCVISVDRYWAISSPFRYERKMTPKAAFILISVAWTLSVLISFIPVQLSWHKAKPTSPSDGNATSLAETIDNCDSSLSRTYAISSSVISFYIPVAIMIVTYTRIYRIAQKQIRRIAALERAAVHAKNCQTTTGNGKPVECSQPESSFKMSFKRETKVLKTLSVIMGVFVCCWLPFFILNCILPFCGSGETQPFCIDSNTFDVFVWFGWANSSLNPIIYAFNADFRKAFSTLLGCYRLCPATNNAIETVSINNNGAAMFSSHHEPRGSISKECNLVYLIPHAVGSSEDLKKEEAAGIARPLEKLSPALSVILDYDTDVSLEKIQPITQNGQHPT
T2 sequence (P21918 whole entry): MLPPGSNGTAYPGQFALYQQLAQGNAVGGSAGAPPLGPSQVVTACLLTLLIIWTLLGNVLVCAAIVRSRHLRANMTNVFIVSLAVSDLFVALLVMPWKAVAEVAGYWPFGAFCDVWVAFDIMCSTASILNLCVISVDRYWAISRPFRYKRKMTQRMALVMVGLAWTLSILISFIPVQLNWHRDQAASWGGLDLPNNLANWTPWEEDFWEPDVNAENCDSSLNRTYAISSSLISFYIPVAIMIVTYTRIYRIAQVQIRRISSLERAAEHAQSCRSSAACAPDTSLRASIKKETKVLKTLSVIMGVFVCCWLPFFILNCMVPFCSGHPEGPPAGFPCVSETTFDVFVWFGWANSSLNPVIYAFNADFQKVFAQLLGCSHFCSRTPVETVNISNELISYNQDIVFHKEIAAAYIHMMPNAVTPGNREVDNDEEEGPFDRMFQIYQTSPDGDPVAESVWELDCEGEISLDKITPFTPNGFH

Structure (SMILES) | half-life [1] [min] | half-life [2] [min] | EC50 [3] [µM] | IC50 [3] [µM] | D4R Ant. (%) [3] [%] | Emax [3] [%] | inhibition at 10 µM [4] [%] | inhibition at 10 µM [5] [%] | EC50 [6] [µM] | D4R average activity at the highest tested dose ([6]; agonist mode) | D4R Ant. (%) [6] [%] | IC50 [7] [µM] | D3R Ant. (%) [7] [%] | Kp ([8]; 5 mg/kg) | half-life [8, 10] [h] | half-life [8, 11] [h] | half-life [8, 12] [h] | Tmax [8, 13] [h] | IC50 [9] [µM] | D2R Ant (%) [9, 15] [%] | further results
Cc1cccc(-n2cc(CN3CCC(c4ccccc4)CC3)nn2)c1 [Compound 14, 4-Phenyl-1-((1-(m-tolyl)-1H-1,2,3-triazol-4-yl)methyl)-piperidine] | 63.3 ± 2.98 | 13.4 ± 0.44 | 0.0445 ± 0.0174 | 0.0846 ± 0.0156 | 63 ± 2 | 30 ± 5 | 16 | 20.2 | > 100 | ND (12% at 100 μM) | 93.3 ± 5.9 | 6.3 ± 2.1 | 81.6 ±0.3 | 0.76 | 0.4 | ≤ 0.4 | 0.37 | 0.25 | 6.09 ± 1.34 | 112 ± 3 | AUC ([8]; plasma): 1.56 ± 0.2 µM·h; Cmax ([8]; plasma): 2.89 ± 0.57 µM; Tmax [8, 14]: 0.25 h; AUC brain ([8]; brain): 1.19 ± 0.10 nmol·h/g; Cmax brain ([8]; brain, 5 mg/kg): 2.16 ± 0.21 nmol/g; peak in vivo brain concentrations expected [8]: greater than 2.8 μM
Cc1cccc(-n2cc(CN3CCN(c4ccccn4)CC3)nn2)c1 [Compound 15, 1-(Pyridin-2-yl)-4-((1-(m-tolyl)-1H-1,2,3-triazol-4-yl)-methyl)-piperazine] | 61.4 ± 7.27 | 32.9 ± 1.16 | 0.00529 ± 0.00139 | 0.0576 ± 0.00544 | 40 ± 1 | 43 ± 6 | 1.76 | 2.16 | > 100 | ND (14% at 100 μM) | 82.8 ± 3.3 |  |  | 0.72 | 1.02 | > 1.1 | 1.09 | 0.25 | 9.05 ± 2.5 | 87.7 ± 2.6 | IC50 [6]: 0.31 ± 0.049 µM; EC50 [7]: 3.6 ± 0.48 µM; Emax [7]: 110 ± 29%; AUC ([8]; plasma): 2.65 ± 0.46 µM·h; Cmax ([8]; plasma): 3.28 ± 1.26 µM; Tmax [8, 14]: 0.25 h; AUC brain ([8]; brain): 1.91 ± 0.31 nmol·h/g; Cmax brain ([8]; brain): 1.83 ± 0.68 nmol/g; peak in vivo brain concentrations expected [8]: greater than 1.8 μM; EC50 [9]: > 100 µM; Emax [9]: 16.5 ± 9.8%
Cc1cccc(-n2cc(CN3CCN(c4ncccn4)CC3)nn2)c1 [Compound 16, 2-(4-((1-(m-Tolyl)-1H-1,2,3-triazol-4-yl)methyl)-piperazin-1-yl)pyrimidine] | 40.1 ± 1.91 | 68.1 ± 9.51 | 0.00768 ± 0.00188 | 0.0679 ± 0.0113 | 45 ± 3 | 39 ± 7 |  |  | > 100 | ND (14% at 100 μM) | 85.2 ± 2.4 | > 10 | 105 ± 4 |  |  |  |  |  | 19 | 73.2 ± 4.6 | IC50 [6]: 0.14 ± 0.035 µM; D4R Emax (%) ([6]; agonist mode, in comparison to dopamine): did not show partial agonist activity; EC50 [7]: > 100 µM; Emax [7]: 75 ± 14%; EC50 [9]: 6.87 ± 2.5 µM; Emax [9]: 25.3 ± 4.9%
CCc1cccc(-n2cc(CN3CCN(c4ccccn4)CC3)nn2)c1 [Compound 19, 1-((1-(3-Ethylphenyl)-1H-1,2,3-triazol-4-yl)methyl)-4-(pyridin-2-yl)piperazine] | 37.5 ± 0.68 | 28 ± 0.56 |  |  |  |  |  |  |  |  |  |  |  |  |  |  |  |  |  |  | 
O=C(CCCN1CCC2(CC1)C(=O)NCN2c1ccccc1)c1ccc(F)cc1 [Spiperone, reference compound] |  |  |  |  | 100 ± 0 |  |  |  |  |  | 100 ± 0 |  |  |  |  |  |  |  |  |  | D2R Ant (%) [9]: 100 ± 0%
